Measurements: patent publication EP0745595A1, “3-(3-Aryloxyphenyl)-1-(substituted methyl)-s-triazine-2,4,6-oxo or thiotrione herbicidal agents” (American Cyanamid Company, priority 1995, dated 1996)

Assays:
Type in all cases: in vivo
[…], PRESL. = Preemergence weed control under flooded paddy conditions, MOOVA (Monochoria); settings: preemergence, 3-4 weeks after treatment
How it was run: (§1)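 Seeds or propagules sown in top 0.5 cm of silt loam in undrained containers, flooded 1.5 to 3 cm throughout. Compounds in aqueous/acetone 50/50 v/v pipetted into flood water at about 0.5, 0.25, 0.125 and 0.063 kg/ha. Visual 0-9 rating versus control after three to four weeks in greenhouse.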

[1] = test system: ECHINOCHLOA ORYZOIDES (ARD.)FRITSCH; test: Preemergence weed control under flooded paddy conditions, ECHORC (Watergrass (Calif.)); settings: preemergence, 3-4 weeks after treatment
How it was run: as §1

[2] = test system: ECHINOCHLOA CRUS-GALLI, (L) BEAU; test: Preemergence herbicidal evaluation, ECHCG (Barnyardgrass); settings: rated four to five weeks after treatment
Source text: (§2) Results of herbicide evaluation are expressed on a rating scale (0-9). The scale is based upon a visual observation of plant stand, vigor, malformation, size, chlorosis and overall plant appearance as compared with a control.
(§3) The preemergence herbicidal activity of the test compounds of the present invention is exemplified by the following tests in which the seeds of a variety of monocotyledonous and dicotyledonous plants are separately mixed with potting soil and planted on top of approximately one inch of soil in separate pint cups. […] The treated cups are then placed on greenhouse benches, watered and cared for in accordance with conventional greenhouse procedures. From four to five weeks after treatment, the tests are terminated and each cup is examined and rated according to the rating system provided in Example 40.
(§4) The compounds evaluated are reported by compound number given in Example 40.

GALIUM APARINE = test: Preemergence herbicidal evaluation, GALAP (Galium); settings: for GALAP herbicidal rating: rated four to five weeks after treatment; for GALAP rating: four to five weeks after treatment
Source text: as §2, §3, §4

CHENOPODIUM ALBUM, L. = test: Preemergence herbicidal evaluation, CHEAL (Lambsquarters, Common); settings: for CHEAL herbicidal rating: rated four to five weeks after treatment; for CHEAL rating: four to five weeks after treatment
How it was run: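 Preemergence, greenhouse: seed + potting soil sown on ~1 inch soil in cups; aqueous acetone spray, ~0.125–0.50 kg/ha equivalent; rated 0-9 vs control at 4–5 wk.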

ZEA MAYS L. = test: Preemergence herbicidal evaluation, ZEAMX (Corn, Field); settings: rated four to five weeks after treatment
Source text: as §2, §3, §4

[3] = test system: ORYZA SATIVA, L. TEBONNET; test: Rice tolerance to post-transplant applications under flooded paddy conditions, ORYSAT (Rice, Tebonnet); settings: post-transplant rice; for Herbicidal effect rating, ORYSAT: 3-4 weeks after treatment; for ORYSAT herbicidal rating (rice tolerance): rated three to four weeks after treatment;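 on ORYSAT herbicidal rating (rice tolerance): applied to flooded soil surface three days after transplanting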
How it was run: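 Two ten-day-old Tebonnet rice seedlings were transplanted into silt loam and kept flooded 1.5 to 3 cm deep. Three days after transplanting, the flood surface received the compound in aqueous/acetone 50/50 v/v at about 0.5, 0.25, 0.125 or 0.063 kg/ha. Injury was rated visually on a 0-9 scale versus control after 3-4 weeks.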

[4] = test system: ABUTILON THEOPHRASTI, MEDIC.; test: Postemergence herbicidal evaluation, ABUTH (Velvetleaf); settings: rated four to five weeks after treatment, averaged
How it was run: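 Velvetleaf (Abutilon theophrasti) seedlings were raised in jiffy flats for about two weeks and then sprayed postemergence. The test compound was dispersed in a 50/50 acetone/water mixture containing 0.5% TWEEN®20 and applied through a nozzle operating at 40 psi. Plants were kept on greenhouse benches and rated 0-9 four to five weeks after treatment.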

SAGITTARIA PYGMAEA, L. = test: Preemergence weed control under flooded paddy conditions, SAGPY (Arrowhead (Pygmaea)); settings: preemergence weeds, rated three to four weeks after treatment
How it was run: as §1

In the case of `Cn1c(=O)n(CC(=O)OC(C)(C)C)c(=O)n(-c2cc(Oc3c(F)cc(C(F)(F)F)cc3Cl)ccc2[N+](=O)[O-])c1=O` [Compound 17, Tert-butyl 3-{5-[(2-chloro-α,α,α,6-tetra-fluoro-p-tolyl)oxy]-2-nitrophenyl}tetra-hydro-5-methyl-2,4,6-trioxo-s-triazine-1(2H)-acetate], the “Herbicidal effect rating, MOOVA” value ([…], PRESL.; 0.125 kg/ha) is reported as 9.0, the “Herbicidal effect rating, MOOVA” value ([…], PRESL.; 0.250 kg/ha) is reported as 9.0 and the “Herbicidal effect rating, MOOVA” value ([…], PRESL.; 0.500 kg/ha) is reported as 9.0. For the same molecule, the “Herbicidal effect rating, ECHORC” value ([1]; 0.125 kg/ha) was 9.0, the “Herbicidal effect rating, ECHORC” value ([1]; 0.250 kg/ha) was 9.0 and the “Herbicidal effect rating, ECHORC” value ([1]; 0.500 kg/ha) was 9.0. The ECHCG herbicidal rating ([2]; Rate 0.125 kg/ha) was 0.0, the ECHCG herbicidal rating ([2]; Rate 0.250 kg/ha) was 0.0 and the ECHCG herbicidal rating ([2]; Rate 0.500 kg/ha) was 0.0. The GALAP herbicidal rating (GALIUM APARINE; Rate 0.125 kg/ha) was 9.0, the GALAP herbicidal rating (GALIUM APARINE; Rate 0.250 kg/ha) was 9.0 and the GALAP herbicidal rating (GALIUM APARINE; Rate 0.500 kg/ha) was 9.0. It also gave a CHEAL herbicidal rating (CHENOPODIUM ALBUM, L.; Rate 0.125 kg/ha) of 9.0, a CHEAL herbicidal rating (CHENOPODIUM ALBUM, L.; Rate 0.250 kg/ha) of 9.0 and a CHEAL herbicidal rating (CHENOPODIUM ALBUM, L.; Rate 0.500 kg/ha) of 9.0. It also gave a ZEAMX herbicidal rating (ZEA MAYS L.; Rate 0.125 kg/ha) of 0.0, a ZEAMX herbicidal rating (ZEA MAYS L.; Rate 0.250 kg/ha) of 0.0 and a ZEAMX herbicidal rating (ZEA MAYS L.; Rate 0.500 kg/ha) of 0.0. The “Herbicidal effect rating, ORYSAT” value ([3]; 0.125 kg/ha) was 3.0, the “Herbicidal effect rating, ORYSAT” value ([3]; 0.250 kg/ha) was 3.0 and the “Herbicidal effect rating, ORYSAT” value ([3]; 0.500 kg/ha) was 2.0. The “ABUTH, herbicide rating (0-9)” value ([4]; Rate 0.125 kg/ha) was 9.0, the “ABUTH, herbicide rating (0-9)” value ([4]; Rate 0.250 kg/ha) was 9.0 and the “ABUTH, herbicide rating (0-9)” value ([4]; Rate 0.500 kg/ha) was 9.0.
`CCOC(=O)Cn1c(=O)n(CC(=O)OC)c(=O)n(-c2cc(Oc3ccc(C(F)(F)F)cc3Cl)ccc2[N+](=O)[O-])c1=O` [Compound 6, 1-Ethyl methyl 5-{5-[(2-chloro-α,α,α-tri-fluoro-p-tolyl)oxy]-2-nitrophenyl}dihydro-2,4,6-trioxo-s-triazine-1,3(2H,4H)-diacetate] gave a GALAP rating (GALIUM APARINE; Rate 0.125 kg/ha) of 9.0, a GALAP rating (GALIUM APARINE; Rate 0.250 kg/ha) of 9.0 and a GALAP rating (GALIUM APARINE; Rate 0.500 kg/ha) of 9.0. The SAGPY herbicidal rating (SAGITTARIA PYGMAEA, L.; Rate 0.125 kg/ha) was 0.0, the SAGPY herbicidal rating (SAGITTARIA PYGMAEA, L.; Rate 0.250 kg/ha) was 0.0 and the SAGPY herbicidal rating (SAGITTARIA PYGMAEA, L.; Rate 0.500 kg/ha) was 0.0. It also gave a CHEAL rating (CHENOPODIUM ALBUM, L.; Rate 0.125 kg/ha) of 9.0, a CHEAL rating (CHENOPODIUM ALBUM, L.; Rate 0.250 kg/ha) of 9.0 and a CHEAL rating (CHENOPODIUM ALBUM, L.; Rate 0.500 kg/ha) of 9.0. For the same molecule, the “ORYSAT herbicidal rating (rice tolerance)” value (shortened to “ORYSAT herbicidal rating”) ([3]; Rate 0.125 kg/ha) was 1.0, the “ORYSAT herbicidal rating” value ([3]; Rate 0.250 kg/ha) was 1.0 and the “ORYSAT herbicidal rating” value ([3]; Rate 0.500 kg/ha) was 1.0. For the same molecule, the “ABUTH, herbicide rating (0-9)” value ([4]; Rate 0.125 kg/ha) was 9.0, the “ABUTH, herbicide rating (0-9)” value ([4]; Rate 0.250 kg/ha) was 9.0 and the “ABUTH, herbicide rating (0-9)” value ([4]; Rate 0.500 kg/ha) was 9.0.
